Test results published in ChEMBL document CHEMBL3885861, “Open TG-GATES”.

Organism: Rattus norvegicus
Assay: Open TG-GATES - Regimen: Single
Format: toxicity, organism-based, Sprague-Dawley
Design: regimen Single, gender Male, age 6 weeks
Conditions: in vivo, po, route gavage; for KIDNEY_L / KIDNEY_R / KIDNEY_TOTAL: tissue Kidney; for LIVER: tissue Liver; for ALP / ALT / AST / BUN / CRE / DBIL / GLC / IP / K / PL / RALB / TBIL / TC / TG / TP / gamma-GTP: tissue Plasma
[1] = 100 mg/kg, 3 h, tissue Blood, dose level Middle
[2] = 100 mg/kg, 3 h, dose level Middle
[3] = 100 mg/kg, 6 h, tissue Blood, dose level Middle
[4] = 100 mg/kg, 6 h, dose level Middle
[5] = 100 mg/kg, 9 h, tissue Blood, dose level Middle
[6] = 100 mg/kg, 9 h, dose level Middle
[7] = 100 mg/kg, 24 h, tissue Blood, dose level Middle
[8] = 100 mg/kg, 24 h, dose level Middle
[9] = 1000 mg/kg, 3 h, tissue Blood, dose level High
[10] = 1000 mg/kg, 3 h, dose level High
[11] = 1000 mg/kg, 6 h, tissue Blood, dose level High
[12] = 1000 mg/kg, 6 h, dose level High
[13] = 1000 mg/kg, 9 h, tissue Blood, dose level High
[14] = 1000 mg/kg, 9 h, dose level High
[15] = 1000 mg/kg, 24 h, tissue Blood, dose level High
[16] = 1000 mg/kg, 24 h, dose level High

`CC(C)OC(=O)C(C)(C)Oc1ccc(C(=O)c2ccc(Cl)cc2)cc1` [FENOFIBRATE] was tested, and the Bas [1] was 0.2%, the Eos [1] was 1% and the Fbg [1] was 289.2 mg/dL. The Ht [1] was 41%, the MCHC [1] was 32.3% and the Mono [1] was 3%. It also gave an RBC [1] of 610 x10_4/ul, a Ret [1] of 9.8% and a KIDNEY_L [2] of 0.8 g. It also gave a KIDNEY_R [2] of 0.8 g, a KIDNEY_TOTAL [2] of 1.6 g and an LIVER [2] of 8.2 g. It also gave an ALP [2] of 1478.6 IU/L, an ALT [2] of 46.6 IU/L and an AST [2] of 79 IU/L. The BUN [2] was 9.8 mg/dL, the CRE [2] was 0.2 mg/dL and the DBIL [2] was 0.012 mg/dL. The GLC [2] was 181.2 mg/dL, the IP [2] was 10.1 mg/dL and the K [2] was 4.3 meq/L. For the same compound, the PL [2] was 145.8 mg/dL, the RALB [2] was 2.6 g/dL and the TBIL [2] was 0.052 mg/dL. It also gave a TC [2] of 79.6 mg/dL, a TG [2] of 46.4 mg/dL and a TP [2] of 5.4 g/dL. For the same compound, the gamma-GTP [2] was 1.4 IU/L, the Bas [3] was 0.2% and the Eos [3] was 0.4%. It also gave a Fbg [3] of 261.4 mg/dL, a Ht [3] of 39.8% and an MCHC [3] of 32.3%. The Mono [3] was 2.8%, the RBC [3] was 591.2 x10_4/ul and the Ret [3] was 10.3%. For the same compound, the KIDNEY_L [4] was 0.8 g, the KIDNEY_R [4] was 0.8 g and the KIDNEY_TOTAL [4] was 1.6 g. The LIVER [4] was 7.5 g, the ALT [4] was 51.2 IU/L and the AST [4] was 85.8 IU/L. It also gave a BUN [4] of 8.4 mg/dL, a CRE [4] of 0.2 mg/dL and a DBIL [4] of 0.01 mg/dL. It also gave a GLC [4] of 173 mg/dL, an IP [4] of 9.8 mg/dL and a K [4] of 4.2 meq/L. For the same compound, the PL [4] was 130.8 mg/dL, the RALB [4] was 2.5 g/dL and the TBIL [4] was 0.054 mg/dL. The TC [4] was 69.6 mg/dL, the TG [4] was 37.2 mg/dL and the TP [4] was 5.2 g/dL. For the same compound, the gamma-GTP [4] was 1 IU/L, the Bas [5] was 0% and the Eos [5] was 1%. The Fbg [5] was 292.2 mg/dL, the Ht [5] was 39.2% and the Lym [5] was 69.2%. It also gave an MCHC [5] of 32.7%, a Mono [5] of 2.6% and an RBC [5] of 604 x10_4/ul. The Ret [5] was 10.3%, the KIDNEY_L [6] was 0.8 g and the KIDNEY_R [6] was 0.8 g. It also gave a KIDNEY_TOTAL [6] of 1.6 g, an LIVER [6] of 7 g and an ALP [6] of 1457.4 IU/L. The ALT [6] was 45 IU/L, the AST [6] was 83.2 IU/L and the BUN [6] was 6.8 mg/dL. The CRE [6] was 0.2 mg/dL, the DBIL [6] was 0.008 mg/dL and the GLC [6] was 159.8 mg/dL. The IP [6] was 9.6 mg/dL, the K [6] was 3.9 meq/L and the PL [6] was 125 mg/dL. It also gave an RALB [6] of 2.4 g/dL, a TBIL [6] of 0.054 mg/dL and a TC [6] of 70.8 mg/dL. It also gave a TG [6] of 29.2 mg/dL, a TP [6] of 5.3 g/dL and a gamma-GTP [6] of 1 IU/L. The Bas [7] was 0.2%, the Eos [7] was 0.8% and the Fbg [7] was 259.6 mg/dL. It also gave a Ht [7] of 38.8%, an MCHC [7] of 32.8% and a Mono [7] of 3.2%. For the same compound, the RBC [7] was 582.4 x10_4/ul, the Ret [7] was 8.5% and the KIDNEY_L [8] was 0.8 g. The KIDNEY_R [8] was 0.8 g, the KIDNEY_TOTAL [8] was 1.7 g and the LIVER [8] was 9.8 g. For the same compound, the ALP [8] was 1873.8 IU/L, the ALT [8] was 46.4 IU/L and the AST [8] was 74.4 IU/L. The BUN [8] was 13 mg/dL, the CRE [8] was 0.2 mg/dL and the DBIL [8] was 0.012 mg/dL. It also gave a GLC [8] of 187.8 mg/dL, an IP [8] of 8.9 mg/dL and a K [8] of 4.4 meq/L. The PL [8] was 122.6 mg/dL, the RALB [8] was 2.5 g/dL and the TBIL [8] was 0.04 mg/dL. The TC [8] was 68.6 mg/dL, the TG [8] was 36.4 mg/dL and the TP [8] was 5.3 g/dL. For the same compound, the gamma-GTP [8] was 1 IU/L, the Bas [9] was 0.2% and the Eos [9] was 0.6%. It also gave a Fbg [9] of 271.2 mg/dL, a Ht [9] of 40.6% and an MCHC [9] of 32.5%. It also gave a Mono [9] of 3.4%, an RBC [9] of 616.6 x10_4/ul and a Ret [9] of 10.6%. The KIDNEY_L [10] was 0.8 g, the KIDNEY_R [10] was 0.8 g and the KIDNEY_TOTAL [10] was 1.6 g. The LIVER [10] was 7.4 g, the ALT [10] was 43.2 IU/L and the AST [10] was 76.6 IU/L. For the same compound, the BUN [10] was 8.2 mg/dL, the CRE [10] was 0.2 mg/dL and the DBIL [10] was 0.018 mg/dL. It also gave a GLC [10] of 173.6 mg/dL, an IP [10] of 9.3 mg/dL and a K [10] of 4.3 meq/L. It also gave a PL [10] of 123.2 mg/dL, an RALB [10] of 2.5 g/dL and a TBIL [10] of 0.062 mg/dL. It also gave a TC [10] of 64.8 mg/dL, a TG [10] of 28 mg/dL and a TP [10] of 5.3 g/dL. The gamma-GTP [10] was 1.6 IU/L, the Bas [11] was 0% and the Eos [11] was 0.6%. The Fbg [11] was 253.6 mg/dL, the Ht [11] was 39.6% and the MCHC [11] was 32.5%. It also gave a Mono [11] of 2.4%, an RBC [11] of 609.8 x10_4/ul and a Ret [11] of 10%. The KIDNEY_L [12] was 0.8 g, the KIDNEY_R [12] was 0.8 g and the KIDNEY_TOTAL [12] was 1.6 g. The LIVER [12] was 7.4 g, the ALP [12] was 1256 IU/L and the ALT [12] was 43.4 IU/L. The AST [12] was 75.4 IU/L, the BUN [12] was 7 mg/dL and the CRE [12] was 0.2 mg/dL. For the same compound, the DBIL [12] was 0.02 mg/dL, the GLC [12] was 170.4 mg/dL and the IP [12] was 9 mg/dL. It also gave a K [12] of 4.2 meq/L, a PL [12] of 116.8 mg/dL and an RALB [12] of 2.5 g/dL. For the same compound, the TBIL [12] was 0.058 mg/dL, the TC [12] was 60 mg/dL and the TG [12] was 28.6 mg/dL. It also gave a TP [12] of 5.2 g/dL, a gamma-GTP [12] of 1.2 IU/L and a Bas [13] of 0%. The Eos [13] was 0.6%, the Fbg [13] was 283.6 mg/dL and the Ht [13] was 39.8%. For the same compound, the MCHC [13] was 32.3%, the Mono [13] was 1.8% and the RBC [13] was 609.2 x10_4/ul. The Ret [13] was 8.8%, the KIDNEY_L [14] was 0.8 g and the KIDNEY_R [14] was 0.8 g. For the same compound, the KIDNEY_TOTAL [14] was 1.6 g, the LIVER [14] was 6.9 g and the ALP [14] was 1470.4 IU/L. For the same compound, the ALT [14] was 48.4 IU/L, the AST [14] was 90.4 IU/L and the BUN [14] was 8 mg/dL. It also gave a CRE [14] of 0.2 mg/dL, a DBIL [14] of 0.014 mg/dL and a GLC [14] of 152.2 mg/dL. The IP [14] was 8.5 mg/dL, the K [14] was 3.8 meq/L and the PL [14] was 119 mg/dL. The RALB [14] was 2.5 g/dL, the TBIL [14] was 0.048 mg/dL and the TC [14] was 62.4 mg/dL. The TG [14] was 32.2 mg/dL, the TP [14] was 5.3 g/dL and the gamma-GTP [14] was 1 IU/L. The Bas [15] was 0%, the Eos [15] was 1% and the Fbg [15] was 259 mg/dL. The Ht [15] was 39.4%, the MCHC [15] was 32.5% and the Mono [15] was 3.6%. For the same compound, the RBC [15] was 603.8 x10_4/ul, the Ret [15] was 9.1% and the KIDNEY_L [16] was 0.8 g. It also gave a KIDNEY_R [16] of 0.8 g, a KIDNEY_TOTAL [16] of 1.7 g and an LIVER [16] of 9.6 g. It also gave an ALT [16] of 53 IU/L, an AST [16] of 84.4 IU/L and a BUN [16] of 13.6 mg/dL. For the same compound, the CRE [16] was 0.2 mg/dL, the DBIL [16] was 0.014 mg/dL and the GLC [16] was 172.2 mg/dL. The IP [16] was 8.7 mg/dL, the K [16] was 4.3 meq/L and the PL [16] was 112.4 mg/dL. The RALB [16] was 2.5 g/dL, the TBIL [16] was 0.048 mg/dL and the TC [16] was 57.2 mg/dL. For the same compound, the TG [16] was 31.6 mg/dL, the TP [16] was 5.3 g/dL and the gamma-GTP [16] was 1 IU/L.
